Test results reported in ChEMBL document CHEMBL5357054, “Expanding the Chemical Diversity of Grisechelins via Heterologous Expression” (2024).
≈ marks a conversion by molar mass, not a printed value. Calls of active or inactive are those of the source. No cut-off for these calls is given here.

How the values were obtained:
[1] = system: Mycobacterium tuberculosis; assay: Antibacterial activity against autoluminescent Mycobacterium tuberculosis H37Ra by 7H9 broth based assay; type: functional
[2] = system: Acinetobacter baumannii; assay: Antibacterial activity against Acinetobacter baumannii ATCC 19606 incubated for 24 hrs by broth microdilution method; type: functional, organism-based
[3] = system: Staphylococcus aureus; assay: Antibacterial activity against methicillin resistant Staphylococcus aureus ATCC 43300 incubated for 24 hrs by broth microdilution method; type: functional, organism-based

Compound	Activity [1]	Activity [2]	Activity [3]	MIC [1] [µg/mL]
OCc1csc(-c2nc3ccccc3c(Cl)c2O)n1	inactive	inactive	inactive	
NC(=O)c1csc(-c2csc(-c3nc4ccccc4c(Cl)c3O)n2)n1	inactive	inactive	inactive	
NC(=O)c1nc2ccc(Cl)cc2c(Cl)c1O	inactive	inactive	inactive	
OCc1csc(-c2nc3ccccc3cc2O)n1	inactive	inactive	inactive	
CC(=O)/C=C/c1csc(-c2nc3ccc(Cl)cc3c(Cl)c2O)n1	inactive	inactive	inactive	
NC(=O)[C@@H]1CSC(c2csc(-c3nc4ccccc4cc3O)n2)=N1	inactive	inactive	inactive	
O=C(OCc1csc(-c2nc3ccc(Cl)cc3c(Cl)c2O)n1)c1ccccc1O	inactive	inactive	inactive	
OCc1csc(-c2nc3ccc(Cl)cc3c(Cl)c2O)n1				8 (≈ 24.5 µM)
O=C(O)c1nc2ccc(Cl)cc2cc1O	inactive	inactive	inactive	
NC(=O)[C@@H]1CSC(c2csc(-c3nc4ccc(Cl)cc4cc3O)n2)=N1	inactive	inactive	inactive	
